Assay results as given in publication PMC3666588 (Journal of medicinal chemistry, 2013).
Entries after “also recorded” stand apart in the source; their conditions may differ. Where two headings read alike, the source gives them in different places.

How the values were obtained:
MCF-7 cells = experiment: In vitro cell proliferation assay; type: cell-based, human; conditions: 0-1000 nM, 6 days, 10% FBS, no additional estrogen
ERα LBD and SRC-1 = biological target: T1, ERα LBD and SRC-1 (Homo sapiens, UniProt P03372); experiment: Mammalian two-hybrid assay, ERα LBD - SRC-1 interaction in HeLa cells; type: cell-based; conditions: 100 nM ligand, GAL-SRC-1 + VP16-ERα-LBD
T1 sequence (P03372 311-547 limits assumed): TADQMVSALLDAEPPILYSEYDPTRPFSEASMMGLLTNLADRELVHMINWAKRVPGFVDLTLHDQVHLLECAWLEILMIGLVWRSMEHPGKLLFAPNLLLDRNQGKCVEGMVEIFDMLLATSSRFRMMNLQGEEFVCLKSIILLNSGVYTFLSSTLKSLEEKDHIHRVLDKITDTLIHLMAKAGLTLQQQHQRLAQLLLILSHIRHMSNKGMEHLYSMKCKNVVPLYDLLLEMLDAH

ERα [1] = biological target: T2, ERα (Homo sapiens, UniProt P03372); experiment: ERα radioligand; type: binding; conditions: for ERα RBA: RBA = IC50 for E2 / IC50 for the test compound; for RBA for human ERs: text summary for human ERs (ERα and ERβ)
T2 sequence (P03372 1-595): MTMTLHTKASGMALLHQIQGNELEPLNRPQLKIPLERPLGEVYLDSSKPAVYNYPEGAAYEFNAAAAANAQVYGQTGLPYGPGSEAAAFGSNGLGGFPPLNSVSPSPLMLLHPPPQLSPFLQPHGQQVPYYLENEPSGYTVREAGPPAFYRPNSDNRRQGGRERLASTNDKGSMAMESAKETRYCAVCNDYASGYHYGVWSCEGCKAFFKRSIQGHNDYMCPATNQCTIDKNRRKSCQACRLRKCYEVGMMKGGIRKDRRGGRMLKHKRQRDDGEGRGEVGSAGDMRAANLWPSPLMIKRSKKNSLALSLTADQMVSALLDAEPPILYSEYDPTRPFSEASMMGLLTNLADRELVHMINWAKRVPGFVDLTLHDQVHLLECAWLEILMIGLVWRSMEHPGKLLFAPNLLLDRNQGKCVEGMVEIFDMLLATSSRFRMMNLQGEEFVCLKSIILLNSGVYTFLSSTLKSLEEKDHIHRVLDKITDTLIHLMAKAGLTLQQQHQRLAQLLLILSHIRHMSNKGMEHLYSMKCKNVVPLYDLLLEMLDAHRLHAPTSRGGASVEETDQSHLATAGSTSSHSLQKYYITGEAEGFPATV

ERα [2] = biological target: T2, ERα; experiment: ERα trans-activation luciferase reporter assay in MCF-7 cells; conditions: 100 nM derivative, compared with 1 nM E2; ERE-Elb-Luc reporter
ERα [3] = biological target: T2, ERα; experiment: ERα trans-activation luciferase reporter assay in HepG2 cells
MDA-MB-231 cells = experiment: In vitro cell proliferation assay; type: cell-based, human; conditions: 0-1000 nM, 6 days
ERα [4] = biological target: T2, ERα; experiment: ERα trans-activation luciferase reporter assay in HeLa cells; conditions: for ERα agonist activity in HeLa or MCF-7 cells: 100 nM derivative, pCR3.1-ERα + ERE-Elb-Luc; for antagonism of E2-stimulated luciferase expression in HeLa cells: in presence of 1 nM E2
recombinant human ERβ = recombinant human ERβ (Homo sapiens, UniProt Q92731); experiment: ERβ radioligand; type: binding; conditions: RBA = IC50 for E2 / IC50 for the test compound
Sequence of recombinant human ERβ (Q92731 whole entry, the tested form may be a part): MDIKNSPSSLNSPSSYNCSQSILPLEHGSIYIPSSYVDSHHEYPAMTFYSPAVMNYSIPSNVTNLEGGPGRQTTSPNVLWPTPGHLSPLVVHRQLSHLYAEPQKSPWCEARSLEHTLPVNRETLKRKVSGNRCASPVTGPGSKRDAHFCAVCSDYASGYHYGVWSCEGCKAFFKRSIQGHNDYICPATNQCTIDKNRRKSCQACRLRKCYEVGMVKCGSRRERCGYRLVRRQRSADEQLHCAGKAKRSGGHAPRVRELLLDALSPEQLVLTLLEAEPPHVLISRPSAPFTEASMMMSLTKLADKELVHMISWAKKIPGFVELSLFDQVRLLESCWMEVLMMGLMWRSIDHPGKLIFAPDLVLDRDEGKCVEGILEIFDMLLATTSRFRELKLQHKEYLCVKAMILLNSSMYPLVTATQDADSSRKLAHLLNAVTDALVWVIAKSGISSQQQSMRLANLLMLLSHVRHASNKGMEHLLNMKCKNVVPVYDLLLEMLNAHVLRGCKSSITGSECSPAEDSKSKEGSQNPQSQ

[5] = system: ERα LBD and CBP CH3 domain; conditions: prior report ref 16; cited from earlier work

| SMILES | effect on growth of ER-positive MCF-7 cells (MCF-7 cells) | promotion of ERα - SRC-1 coactivator interaction (ERα LBD and SRC-1) | ERα RBA (ERα [1]) [%] | RBA for human ERs (ERα [1]) | ERα agonist activity (transcription of target gene) in MCF-7 cells (ERα [2]) | agonist activity in HepG2 cells relative to E2 (ERα [3]) | effect on growth of ER-negative MDA-MB-231 cells (MDA-MB-231 cells) | ERα agonist activity in HeLa or MCF-7 cells (ERα [4]) | antagonism of E2-stimulated luciferase expression in HeLa cells (ERα [4]) | ERβ RBA (recombinant human ERβ) [%] | promotion of ERα interaction with CBP coactivator [5] | agonist activity in HepG2 cells relative to E2 (ERα [3]; 100 nM derivative, normalized to 1 nM E2, pCR3.1-ERα + ERE-Elb-Luc) | RBA for the human ERα (ERα [1]; stated in docking discussion) |
| --- | --- | --- | --- | --- | --- | --- | --- | --- | --- | --- | --- | --- | --- |
| C[C@]12CC[C@@H]3c4ccc(O)cc4C[C@@H](CCCCC#Cc4ccc(CN5CCCCC5)cc4)[C@H]3[C@@H]1CC[C@@H]2O [J6, 3,17β-bis(hydroxy)-7α-[6-(4-piperidin-1-ylmethyl-phenyl)-hex-5-ynyl]-estra-1,3,5(10)-trien] | either no effect or a stimulatory effect; also recorded: did not show an appreciable effect | effectively promoted the interaction | 0.9 | approximately 1 % of E2 | markedly weaker effect |  |  |  |  |  |  |  |  |
| C[C@]12CC[C@@H]3c4ccc(O)cc4C[C@@H](CCCCC#Cc4ccc(-c5ccno5)cc4)[C@H]3[C@@H]1CC[C@@H]2O [J3, 3,17β-bis(hydroxy)-7α-[6-(4-Isoxazol-5-yl-phenyl)-hex-5-ynyl]-estra-1,3,5(10)-trien] | concentration-dependent inhibition | did not induce significant SRC-1 binding |  | approximately 1 % of E2 | very poor agonists | approximately 50 % of the agonist activity of E2 | no appreciable effect; also recorded: did not show an appreciable effect | poor agonists | less effective inhibitors |  |  |  |  |
| CCOC(=O)C(Cc1ccc(C#CCCCC[C@@H]2Cc3cc(O)ccc3[C@H]3CC[C@]4(C)[C@@H](O)CC[C@H]4[C@H]23)cc1)C(=O)OCC [J8, 2-{4-[6-((7α,17β)-3,17-dihydroxyestra-1,3,5(10)-trien-7-yl)-hex-1-ynyl]-benzyl}-malonic acid diethyl ester] | either no effect or a stimulatory effect; also recorded: did not show an appreciable effect | effectively promoted the interaction | 4.7 |  | markedly weaker effect |  |  |  |  | 5.8 |  |  |  |
| C[C@]12CC[C@@H]3c4ccc(O)cc4C[C@@H](CCCCCCCCC[S+]([O-])CCCC(F)(F)C(F)(F)F)[C@H]3[C@@H]1CC[C@@H]2O (stereo partly shown) [ICI-182,780, fulvestrant] |  |  |  |  |  |  |  |  |  |  | strongly promote ERα interaction with the CBP coactivator |  |  |
| CCOC(=O)CC(=O)c1ccc(C#CCCCC[C@@H]2Cc3cc(O)ccc3[C@H]3CC[C@]4(C)[C@@H](O)CC[C@H]4[C@H]23)cc1 [J5, 3-{4-[6-((7α,17β)-3,17-dihydroxyestra-1,3,5(10)-trien-7-yl)-hex-1-ynyl]-phenyl}-3-oxo-propionic acid ethyl ester] | either no effect or a stimulatory effect; also recorded: did not show an appreciable effect | effectively promoted the interaction | 6.2 |  |  |  |  |  |  | 4.7 |  |  |  |
| C[C@]12CC[C@@H]3c4ccc(O)cc4C[C@@H](CCCCC#Cc4ccc5ccccc5c4)[C@H]3[C@@H]1CC[C@@H]2O [J2, 3,17β-bis(hydroxy)-7α-(6-naphthalen-2-yl-hex-5-ynyl)-estra-1,3,5(10)-trien] | either no effect or a stimulatory effect; also recorded: did not show an appreciable effect | effectively promoted the interaction | 3.4 |  |  |  |  |  |  |  |  |  |  |
| C[C@]12CC[C@@H]3c4ccc(O)cc4C[C@@H](CCCCc4cn(CC5COc6ccccc6O5)nn4)[C@H]3[C@@H]1CC[C@@H]2O (stereo partly drawn) [J9, 3,17β-bis(hydroxy)-7α-{4-[1-(2,3-Dihydro-1,4-benzodioxin-2-ylmethyl)-1H-1,2,3-triazol-4-yl]-butyl}-estra-1,3,5(10)-trien] | concentration-dependent inhibition | did not induce significant SRC-1 binding | 24.6 | > 20 % of E2 | no agonist activity |  |  | poor agonists | strongest antagonists | 21.1 |  | approximately 50 % of the agonist activity of E2 | 24.6 % of E2 |
| C[C@]12CC[C@@H]3c4ccc(O)cc4C[C@@H](CCCCc4cn(-c5cc6ccc(O)cc6oc5=O)nn4)[C@H]3[C@@H]1CC[C@@H]2O [J7, 3-{4-[4-((7α,17β)-3,17-dihydroxyestra-1,3,5(10)-trien-7-yl)-butyl]-1,2,3-triazol-1-yl}-7-hydroxy-1-benzopyran-2-one] | concentration-dependent inhibition | did not induce significant SRC-1 binding |  |  | no agonist activity |  |  |  | strongest antagonists |  |  |  |  |
| CC(C)(C)OC(=O)N1CCN(c2ccc(C#CCCCC[C@@H]3Cc4cc(O)ccc4[C@H]4CC[C@]5(C)[C@@H](O)CC[C@H]5[C@H]34)cc2)CC1 [J4, 4-{4-[6-((7α,17β)-3,17-dihydroxyestra-1,3,5(10)-trien-7-yl)-hex-1-ynyl]-phenyl}-piperazine-1-carboxylic acid tert-butyl ester] | concentration-dependent inhibition | did not induce significant SRC-1 binding | 1.1 | approximately 1 % of E2 | very poor agonists |  | no appreciable effect; also recorded: did not show an appreciable effect |  | less effective inhibitors | 2.0 |  |  |  |
| C[C@]12CC[C@@H]3c4ccc(O)cc4C[C@@H](CCCCC#Cc4ccc(-n5cccc5)cc4)[C@H]3[C@@H]1CC[C@@H]2O [J1, 3,17β-bis(hydroxy)-7α-[6-(4-pyrrol-1-yl-phenyl)-hex-5-ynyl]-estra-1,3,5(10)-trien] | either no effect or a stimulatory effect; also recorded: did not show an appreciable effect | effectively promoted the interaction | 21.2 | > 20 % of E2 |  |  |  |  |  |  |  |  |  |
